{"source": "ChEMBL document CHEMBL4800723", "about": "“Data for DCP probe BI-1942” (2021)", "key": {"Chymase": {"molecular_target": "Chymase (Homo sapiens, UniProt P23946)", "assay": "Angiotensin II formation by CMA1 in human plasma", "type": "cell-free"}, "[1]": {"molecular_target": "Cannabinoid receptor 1 (Homo sapiens) (UniProt P21554)", "assay": "CB1(HU)_AGON Eurofins SafetyScreen44 (BI)", "settings": "Rattus norvegicus; filed as agonist; Compound concentration 10.0 uM"}, "[2]": {"molecular_target": "Prostaglandin G/H synthase 2 (Homo sapiens) (UniProt P35354)", "assay": "COX-2 Eurofins SafetyScreen44 (BI)", "settings": "Compound concentration 10.0 uM"}, "[3]": {"molecular_target": "5-hydroxytryptamine receptor 2B (Homo sapiens) (UniProt P41595)", "sequence (P41595 whole entry)": "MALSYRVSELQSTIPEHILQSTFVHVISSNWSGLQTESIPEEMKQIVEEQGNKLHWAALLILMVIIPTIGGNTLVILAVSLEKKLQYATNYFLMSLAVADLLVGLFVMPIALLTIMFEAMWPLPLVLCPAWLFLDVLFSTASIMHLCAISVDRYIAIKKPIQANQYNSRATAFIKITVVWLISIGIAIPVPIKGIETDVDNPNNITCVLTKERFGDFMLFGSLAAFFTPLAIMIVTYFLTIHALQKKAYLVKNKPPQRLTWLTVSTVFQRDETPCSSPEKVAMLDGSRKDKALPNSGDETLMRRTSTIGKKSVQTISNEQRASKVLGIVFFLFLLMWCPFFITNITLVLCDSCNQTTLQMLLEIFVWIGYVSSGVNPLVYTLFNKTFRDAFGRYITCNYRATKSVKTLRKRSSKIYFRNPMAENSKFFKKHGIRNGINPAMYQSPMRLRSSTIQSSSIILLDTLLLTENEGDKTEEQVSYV", "assay": "5HT2B/H AG Eurofins SafetyScreen44 (BI)", "settings": "filed as agonist, Compound concentration 10.0 uM"}, "[4]": {"molecular_target": "Serotonin 3 (5-HT3) receptor (Homo sapiens) (UniProt P46098+A5X5Y0+O95264+Q70Z44+Q8WXA8)", "assay": "5HT3/H Eurofins SafetyScreen44 (BI)", "type": "protein-complex assay", "settings": "Compound concentration 10.0 uM"}, "[5]": {"molecular_target": "Angiotensin-converting enzyme 2 (Homo sapiens) (UniProt Q9BYF1)", "assay": "ACE-2(HU) Eurofins SafetyScreen44 (BI)", "settings": "Compound concentration 10.0 uM"}, "[6]": {"molecular_target": "Alpha-1A adrenergic receptor (Homo sapiens) (UniProt P35348)", "assay": "ALPHA1AH_ANTAG Eurofins SafetyScreen44 (BI)", "settings": "filed as antagonist, Compound concentration 10.0 uM"}, "[7]": {"molecular_target": "Androgen receptor (Homo sapiens) (UniProt P10275)", "assay": "ANDROGEN/H Eurofins SafetyScreen44 (BI)", "settings": "Compound concentration 10.0 uM"}, "[8]": {"molecular_target": "Beta-2 adrenergic receptor (Homo sapiens) (UniProt P07550)", "assay": "BETA2/HUM Eurofins SafetyScreen44 (BI)", "settings": "filed as antagonist, Compound concentration 10.0 uM"}, "[9]": {"molecular_target": "T1, GABA-A receptor; anion channel (Rattus norvegicus) (UniProt O09028+P15431+P18506+P18508+P19969+P20236+P23574+P23576+P28471+P28473+P30191+P62813+P63079+P63138+Q91ZM7+Q9ES14)", "assay": "BZD/CENTR/R Eurofins SafetyScreen44 (BI)", "type": "protein-complex assay", "settings": "Compound concentration 10.0 uM"}, "[10]": {"molecular_target": "L-type calcium channel (dihydropyridine site), Cav1.2 alpha-1C (Rattus norvegicus, UniProt P22002)", "assay": "CA+/DHPSI/R Eurofins SafetyScreen44 (BI)", "parameters": "mode of action inhibitor", "settings": "rat brain, probe [3H](+)PN200-110, compound concentration 10 uM, read-out: % Ctrl"}, "Caspase-7 (Homo sapiens)": {"molecular_target": "Caspase-7 (Homo sapiens) (UniProt P55210)", "assay": "CASPASE-7(H) Eurofins SafetyScreen44 (BI)", "settings": "Compound concentration 10.0 uM"}, "[11]": {"molecular_target": "Cathepsin G (Homo sapiens) (UniProt P08311)", "assay": "CATHEPSG(H) Eurofins SafetyScreen44 (BI)", "settings": "Compound concentration 10.0 uM"}, "[12]": {"molecular_target": "Dipeptidyl peptidase 1 (Homo sapiens) (UniProt P53634)", "assay": "CATHEPSIN_C_CE Eurofins SafetyScreen44 (BI)", "settings": "Compound concentration 10.0 uM"}, "[13]": {"molecular_target": "D(2) dopamine receptor (Homo sapiens) (UniProt P14416)", "sequence (P14416 whole entry)": "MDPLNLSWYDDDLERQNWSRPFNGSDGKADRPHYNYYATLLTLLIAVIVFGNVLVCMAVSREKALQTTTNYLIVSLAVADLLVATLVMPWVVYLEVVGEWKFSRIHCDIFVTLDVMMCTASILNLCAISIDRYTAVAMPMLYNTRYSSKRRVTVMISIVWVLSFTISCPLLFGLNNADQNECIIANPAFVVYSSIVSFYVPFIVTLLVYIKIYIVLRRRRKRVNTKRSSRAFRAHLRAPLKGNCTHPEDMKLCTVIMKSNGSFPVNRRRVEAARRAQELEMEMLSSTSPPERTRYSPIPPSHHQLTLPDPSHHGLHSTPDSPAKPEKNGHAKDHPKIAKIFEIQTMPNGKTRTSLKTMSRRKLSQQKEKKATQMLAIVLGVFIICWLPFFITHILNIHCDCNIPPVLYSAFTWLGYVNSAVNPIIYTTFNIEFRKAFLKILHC", "assay": "D2SH_AGON Eurofins SafetyScreen44 (BI)", "settings": "filed as agonist, Compound concentration 10.0 uM"}, "[14]": {"molecular_target": "Sodium-dependent dopamine transporter (Homo sapiens) (UniProt Q01959)", "assay": "DATRANS/HUM Eurofins SafetyScreen44 (BI)", "settings": "Compound concentration 10.0 uM"}, "[15]": {"molecular_target": "Endothelin-converting enzyme 1 (Homo sapiens) (UniProt P42892)", "sequence (P42892 whole entry)": "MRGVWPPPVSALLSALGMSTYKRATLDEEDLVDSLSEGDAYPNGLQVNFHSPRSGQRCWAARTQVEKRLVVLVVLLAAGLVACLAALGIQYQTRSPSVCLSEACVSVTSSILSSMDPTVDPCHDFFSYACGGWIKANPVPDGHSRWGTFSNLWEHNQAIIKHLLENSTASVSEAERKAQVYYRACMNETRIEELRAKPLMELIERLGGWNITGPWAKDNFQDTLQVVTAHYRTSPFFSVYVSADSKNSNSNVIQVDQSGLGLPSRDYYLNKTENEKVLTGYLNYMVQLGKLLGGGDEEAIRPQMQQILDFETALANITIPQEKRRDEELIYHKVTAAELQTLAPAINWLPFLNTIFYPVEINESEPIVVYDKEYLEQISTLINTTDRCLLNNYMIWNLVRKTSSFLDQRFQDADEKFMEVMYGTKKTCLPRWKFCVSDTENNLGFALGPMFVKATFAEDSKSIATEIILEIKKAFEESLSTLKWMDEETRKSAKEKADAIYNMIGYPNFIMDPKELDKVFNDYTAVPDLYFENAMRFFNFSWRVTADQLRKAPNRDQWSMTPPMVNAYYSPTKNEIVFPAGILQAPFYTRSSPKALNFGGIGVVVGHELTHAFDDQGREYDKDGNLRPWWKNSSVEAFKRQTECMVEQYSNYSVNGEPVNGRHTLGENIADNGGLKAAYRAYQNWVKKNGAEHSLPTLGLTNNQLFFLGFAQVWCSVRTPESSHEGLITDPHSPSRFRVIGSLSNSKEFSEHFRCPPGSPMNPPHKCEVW", "assay": "ECE(H) Eurofins SafetyScreen44 (BI)", "settings": "Compound concentration 10.0 uM"}, "[16]": {"molecular_target": "Glucocorticoid receptor (Homo sapiens) (UniProt P04150)", "assay": "GCORTICOID/H Eurofins SafetyScreen44 (BI)", "settings": "Compound concentration 10.0 uM"}, "[17]": {"molecular_target": "Histamine H1 receptor (Homo sapiens) (UniProt P35367)", "assay": "H1/PYRIL/HS Eurofins SafetyScreen44 (BI)", "settings": "Compound concentration 10.0 uM"}, "hERG (KCNH2)": {"molecular_target": "hERG (KCNH2) (Homo sapiens, UniProt Q12809)", "assay": "HERG_DOFETILIDE Eurofins SafetyScreen44 (BI)", "parameters": "mode of action inhibitor", "settings": "probe [3H] Dofetilide, compound concentration 10 uM, read-out: % Ctrl"}, "Rattus norvegicus": {"species": "Rattus norvegicus", "assay": "K+/VOLT/RA Eurofins SafetyScreen44 (BI)", "settings": "Compound concentration 10.0 uM"}, "[18]": {"molecular_target": "Muscarinic acetylcholine receptor M3 (Homo sapiens) (UniProt P20309)", "assay": "M3/H Eurofins SafetyScreen44 (BI)", "settings": "Compound concentration 10.0 uM"}, "[19]": {"molecular_target": "MAO-A (amine oxidase [flavin-containing] A) (Rattus norvegicus, UniProt P21396)", "sequence (P21396 whole entry)": "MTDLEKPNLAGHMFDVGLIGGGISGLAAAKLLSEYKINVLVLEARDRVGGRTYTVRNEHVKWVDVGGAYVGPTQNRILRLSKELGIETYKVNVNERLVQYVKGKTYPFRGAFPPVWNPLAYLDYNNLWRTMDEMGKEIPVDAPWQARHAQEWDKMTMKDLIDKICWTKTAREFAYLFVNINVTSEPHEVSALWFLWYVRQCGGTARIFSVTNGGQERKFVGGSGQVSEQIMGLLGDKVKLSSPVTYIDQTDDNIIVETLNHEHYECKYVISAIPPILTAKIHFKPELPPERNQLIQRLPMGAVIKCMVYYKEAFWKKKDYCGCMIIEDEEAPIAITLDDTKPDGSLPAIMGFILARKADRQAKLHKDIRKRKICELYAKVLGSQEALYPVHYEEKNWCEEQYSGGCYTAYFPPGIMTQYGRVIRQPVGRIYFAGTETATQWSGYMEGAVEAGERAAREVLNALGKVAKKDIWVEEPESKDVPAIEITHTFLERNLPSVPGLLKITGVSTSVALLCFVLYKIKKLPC", "assay": "MAO-A_ANTAG Eurofins SafetyScreen44 (BI)", "parameters": "mode of action antagonist; scale not given: the % may be the effect or the level left", "settings": "compound concentration 10 uM, read-out: % Ctrl"}, "[20]": {"molecular_target": "Matrilysin (Homo sapiens) (UniProt P09237)", "sequence (P09237 whole entry)": "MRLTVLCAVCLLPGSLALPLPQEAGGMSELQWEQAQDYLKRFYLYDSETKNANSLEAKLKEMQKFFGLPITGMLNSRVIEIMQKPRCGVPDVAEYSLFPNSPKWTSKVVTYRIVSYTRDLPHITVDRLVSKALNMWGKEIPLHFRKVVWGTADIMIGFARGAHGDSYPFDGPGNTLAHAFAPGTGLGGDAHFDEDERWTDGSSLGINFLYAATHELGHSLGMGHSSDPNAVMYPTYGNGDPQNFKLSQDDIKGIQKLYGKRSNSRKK", "assay": "MMP-7 (H) Eurofins SafetyScreen44 (BI)", "settings": "Compound concentration 10.0 uM"}, "[21]": {"molecular_target": "Interstitial collagenase (Homo sapiens) (UniProt P03956)", "assay": "MMP1 (H) Eurofins SafetyScreen44 (BI)", "settings": "Compound concentration 10.0 uM"}, "[22]": {"molecular_target": "Proteinase-activated receptor 1 (Homo sapiens) (UniProt P25116)", "assay": "PAR1(H)ANTAG Eurofins SafetyScreen44 (BI)", "settings": "filed as antagonist, Compound concentration 10.0 uM"}, "[23]": {"molecular_target": "Sodium-dependent serotonin transporter (Homo sapiens) (UniProt P31645)", "assay": "SLC6A4/H Eurofins SafetyScreen44 (BI)", "settings": "filed as antagonist, Compound concentration 10.0 uM"}, "[24]": {"molecular_target": "5-hydroxytryptamine receptor 2A (Homo sapiens) (UniProt P28223)", "settings": "Compound concentration 10.0 uM"}, "[25]": {"molecular_target": "5-hydroxytryptamine receptor 2B (Homo sapiens) (UniProt P41595)", "settings": "Compound concentration 10.0 uM"}, "[26]": {"molecular_target": "5-hydroxytryptamine receptor 7 (Homo sapiens) (UniProt P34969)", "sequence (P34969 whole entry)": "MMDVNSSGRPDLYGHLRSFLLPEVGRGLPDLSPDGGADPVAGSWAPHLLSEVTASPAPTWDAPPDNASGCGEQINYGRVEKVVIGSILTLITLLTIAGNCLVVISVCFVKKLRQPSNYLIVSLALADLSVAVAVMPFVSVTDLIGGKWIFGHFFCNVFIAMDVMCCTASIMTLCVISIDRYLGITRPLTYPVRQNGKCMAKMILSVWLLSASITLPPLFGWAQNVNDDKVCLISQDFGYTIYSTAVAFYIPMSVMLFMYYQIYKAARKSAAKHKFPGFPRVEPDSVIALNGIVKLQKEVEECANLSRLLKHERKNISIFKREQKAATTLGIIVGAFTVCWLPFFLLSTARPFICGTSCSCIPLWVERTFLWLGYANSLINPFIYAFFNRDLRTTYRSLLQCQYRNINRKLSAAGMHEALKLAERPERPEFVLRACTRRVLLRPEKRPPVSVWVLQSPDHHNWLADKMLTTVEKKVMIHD", "settings": "Compound concentration 10.0 uM"}, "[27]": {"molecular_target": "D(1A) dopamine receptor (Homo sapiens) (UniProt P21728)", "settings": "Compound concentration 10.0 uM"}, "[28]": {"molecular_target": "D(3) dopamine receptor (Homo sapiens) (UniProt P35462)", "settings": "Compound concentration 10.0 uM"}, "[29]": {"molecular_target": "D(1B) dopamine receptor (Homo sapiens) (UniProt P21918)", "settings": "Compound concentration 10.0 uM"}, "[30]": {"molecular_target": "Sodium-dependent noradrenaline transporter (Homo sapiens) (UniProt P23975)", "sequence (P23975 whole entry)": "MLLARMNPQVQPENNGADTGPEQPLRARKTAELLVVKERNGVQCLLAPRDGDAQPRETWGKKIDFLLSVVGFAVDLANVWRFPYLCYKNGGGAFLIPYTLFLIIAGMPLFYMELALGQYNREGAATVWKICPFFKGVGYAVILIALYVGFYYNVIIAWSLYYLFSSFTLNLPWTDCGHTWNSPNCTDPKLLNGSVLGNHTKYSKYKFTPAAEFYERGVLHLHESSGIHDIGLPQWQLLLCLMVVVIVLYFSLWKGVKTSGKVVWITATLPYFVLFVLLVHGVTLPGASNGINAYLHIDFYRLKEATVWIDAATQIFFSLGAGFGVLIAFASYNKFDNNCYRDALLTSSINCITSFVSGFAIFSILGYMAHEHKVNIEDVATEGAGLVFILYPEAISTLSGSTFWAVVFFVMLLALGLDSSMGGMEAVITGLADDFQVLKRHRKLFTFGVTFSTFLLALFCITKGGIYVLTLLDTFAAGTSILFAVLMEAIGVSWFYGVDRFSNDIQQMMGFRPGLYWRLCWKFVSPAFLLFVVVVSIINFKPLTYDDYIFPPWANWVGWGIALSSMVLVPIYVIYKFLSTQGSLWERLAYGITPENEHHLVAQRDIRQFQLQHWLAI", "settings": "Compound concentration 10.0 uM"}, "[31]": {"molecular_target": "Mu-type opioid receptor (Homo sapiens) (UniProt P35372)", "settings": "Compound concentration 10.0 uM"}, "[32]": {"molecular_target": "T1, GABA-A receptor; anion channel (Rattus norvegicus)", "settings": "Compound concentration 10.0 uM"}, "[33]": {"molecular_target": "Histamine H3 receptor (Homo sapiens) (UniProt Q9Y5N1)", "settings": "Compound concentration 10.0 uM"}, "[34]": {"molecular_target": "Alpha-2C adrenergic receptor (Homo sapiens) (UniProt P18825)", "sequence (P18825 whole entry)": "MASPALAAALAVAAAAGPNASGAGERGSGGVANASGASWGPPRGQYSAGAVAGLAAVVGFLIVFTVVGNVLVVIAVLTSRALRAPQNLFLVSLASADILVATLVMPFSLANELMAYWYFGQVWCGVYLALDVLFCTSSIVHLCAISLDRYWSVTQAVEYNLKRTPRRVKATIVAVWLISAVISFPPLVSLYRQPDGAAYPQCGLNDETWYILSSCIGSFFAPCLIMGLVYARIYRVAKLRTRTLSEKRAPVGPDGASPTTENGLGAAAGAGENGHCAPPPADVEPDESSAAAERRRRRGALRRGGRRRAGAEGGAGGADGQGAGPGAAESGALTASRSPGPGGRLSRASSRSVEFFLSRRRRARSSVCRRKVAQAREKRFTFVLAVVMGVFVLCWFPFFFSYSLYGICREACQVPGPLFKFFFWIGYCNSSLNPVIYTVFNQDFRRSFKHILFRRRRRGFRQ", "settings": "Compound concentration 10.0 uM"}, "[35]": {"molecular_target": "Beta-1 adrenergic receptor (Homo sapiens) (UniProt P08588)", "settings": "Compound concentration 10.0 uM"}, "[36]": {"molecular_target": "Alpha-1D adrenergic receptor (Homo sapiens) (UniProt P25100)", "sequence (P25100 whole entry)": "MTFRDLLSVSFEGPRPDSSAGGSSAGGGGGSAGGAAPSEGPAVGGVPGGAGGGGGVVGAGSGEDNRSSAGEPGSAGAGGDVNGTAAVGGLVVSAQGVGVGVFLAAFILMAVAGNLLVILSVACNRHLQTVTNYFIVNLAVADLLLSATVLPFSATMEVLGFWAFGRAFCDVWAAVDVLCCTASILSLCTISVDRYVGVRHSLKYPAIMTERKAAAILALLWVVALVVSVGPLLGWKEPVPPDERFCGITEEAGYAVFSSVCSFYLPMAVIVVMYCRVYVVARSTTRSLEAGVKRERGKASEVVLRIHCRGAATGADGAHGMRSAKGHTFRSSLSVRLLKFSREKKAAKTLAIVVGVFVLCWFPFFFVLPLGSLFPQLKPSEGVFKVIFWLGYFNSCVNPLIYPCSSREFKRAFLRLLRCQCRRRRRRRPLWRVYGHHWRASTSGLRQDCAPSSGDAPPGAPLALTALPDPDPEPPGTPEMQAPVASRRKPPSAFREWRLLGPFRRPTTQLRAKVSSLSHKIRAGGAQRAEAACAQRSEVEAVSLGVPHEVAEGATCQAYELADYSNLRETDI", "settings": "Compound concentration 10.0 uM"}, "[37]": {"molecular_target": "Sigma intracellular receptor 2 (Homo sapiens) (UniProt Q5BJF2)", "sequence (Q5BJF2 whole entry)": "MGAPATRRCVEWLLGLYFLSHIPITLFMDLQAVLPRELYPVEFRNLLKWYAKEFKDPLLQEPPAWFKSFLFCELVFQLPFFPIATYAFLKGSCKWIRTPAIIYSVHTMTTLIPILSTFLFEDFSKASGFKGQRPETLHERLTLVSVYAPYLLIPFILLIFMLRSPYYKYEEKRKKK", "settings": "Compound concentration 10.0 uM"}}, "note": "Active and inactive are the calls of the source. The rule behind the calls is not given here.", "data": [{"smiles": "CC[C@H](CC(=O)O)n1c(=O)c2ncccc2n(Cc2cn(C)c3cc(C)cc(C)c23)c1=O", "note": "[BI-1942]", "values": [{"measurement": "IC50", "setting": "Chymase", "result": "0.198 µM (active)"}, {"measurement": "residual activity", "setting": "[1]", "result": 114, "unit": "%"}, {"measurement": "residual activity", "setting": "[2]", "result": 101, "unit": "%"}, {"measurement": "residual activity", "setting": "[3]", "result": 100, "unit": "%"}, {"measurement": "residual activity", "setting": "[4]", "result": 97, "unit": "%"}, {"measurement": "residual activity", "setting": "[5]", "result": 127, "unit": "%"}, {"measurement": "residual activity", "setting": "[6]", "result": 103, "unit": "%"}, {"measurement": "residual activity", "setting": "[7]", "result": 115, "unit": "%"}, {"measurement": "residual activity", "setting": "[8]", "result": 93, "unit": "%"}, {"measurement": "residual activity", "setting": "[9]", "result": 129, "unit": "%"}, {"measurement": "activity at 10 µM", "setting": "[10]", "result": "108% (not active)"}, {"measurement": "residual activity", "setting": "Caspase-7 (Homo sapiens)", "result": 101, "unit": "%"}, {"measurement": "residual activity", "setting": "[11]", "result": -2, "unit": "%"}, {"measurement": "residual activity", "setting": "[12]", "result": 92, "unit": "%"}, {"measurement": "residual activity", "setting": "[13]", "result": 108, "unit": "%"}, {"measurement": "residual activity", "setting": "[14]", "result": 101, "unit": "%"}, {"measurement": "residual activity", "setting": "[15]", "result": 82, "unit": "%"}, {"measurement": "residual activity", "setting": "[16]", "result": 107, "unit": "%"}, {"measurement": "residual activity", "setting": "[17]", "result": 100, "unit": "%"}, {"measurement": "activity at 10 µM", "setting": "hERG (KCNH2)", "result": "105% (not active)"}, {"measurement": "residual activity", "setting": "Rattus norvegicus", "result": 104, "unit": "%"}, {"measurement": "residual activity", "setting": "[18]", "result": 98, "unit": "%"}, {"measurement": "activity at 10 µM", "setting": "[19]", "result": "86% (not active)"}, {"measurement": "residual activity", "setting": "[20]", "result": 100, "unit": "%"}, {"measurement": "residual activity", "setting": "[21]", "result": 97, "unit": "%"}, {"measurement": "residual activity", "setting": "[22]", "result": 120, "unit": "%"}, {"measurement": "residual activity", "setting": "[23]", "result": 86, "unit": "%"}, {"measurement": "inhibition", "setting": "[24]", "result": 0.22, "unit": "%"}, {"measurement": "inhibition", "setting": "[25]", "result": 5.53, "unit": "%"}, {"measurement": "inhibition", "setting": "[26]", "result": 27.2, "unit": "%"}, {"measurement": "inhibition", "setting": "[27]", "result": 20.3, "unit": "%"}, {"measurement": "inhibition", "setting": "[28]", "result": 11.1, "unit": "%"}, {"measurement": "inhibition", "setting": "[29]", "result": 22.2, "unit": "%"}, {"measurement": "inhibition", "setting": "[30]", "result": 31.5, "unit": "%"}, {"measurement": "inhibition", "setting": "[31]", "result": 2.82, "unit": "%"}, {"measurement": "inhibition", "setting": "[32]", "result": 6.86, "unit": "%"}, {"measurement": "inhibition", "setting": "[33]", "result": 3.32, "unit": "%"}, {"measurement": "inhibition", "setting": "[34]", "result": 13.8, "unit": "%"}, {"measurement": "inhibition", "setting": "[35]", "result": 10.4, "unit": "%"}, {"measurement": "inhibition", "setting": "[36]", "result": 12.1, "unit": "%"}, {"measurement": "inhibition", "setting": "[37]", "result": -9.5, "unit": "%"}]}]}
